Results reported in US9533952B2, “N-prop-2-ynyl carboxamide derivatives and their use as TRPA1 antagonists” (Orion Corporation, priority 2012, dated 2017).
pIC50: −log10 of the molar value.

target: TRPA1 (Homo sapiens, UniProt O75762); assay: Determination of TRPA1 activity in vitro (TRPA1 antagonism in vitro); assay type: cell-based; conditions: procedure of Wei et al., Anesthesiology 111 (2009) 147-154
Sequence (O75762 whole entry): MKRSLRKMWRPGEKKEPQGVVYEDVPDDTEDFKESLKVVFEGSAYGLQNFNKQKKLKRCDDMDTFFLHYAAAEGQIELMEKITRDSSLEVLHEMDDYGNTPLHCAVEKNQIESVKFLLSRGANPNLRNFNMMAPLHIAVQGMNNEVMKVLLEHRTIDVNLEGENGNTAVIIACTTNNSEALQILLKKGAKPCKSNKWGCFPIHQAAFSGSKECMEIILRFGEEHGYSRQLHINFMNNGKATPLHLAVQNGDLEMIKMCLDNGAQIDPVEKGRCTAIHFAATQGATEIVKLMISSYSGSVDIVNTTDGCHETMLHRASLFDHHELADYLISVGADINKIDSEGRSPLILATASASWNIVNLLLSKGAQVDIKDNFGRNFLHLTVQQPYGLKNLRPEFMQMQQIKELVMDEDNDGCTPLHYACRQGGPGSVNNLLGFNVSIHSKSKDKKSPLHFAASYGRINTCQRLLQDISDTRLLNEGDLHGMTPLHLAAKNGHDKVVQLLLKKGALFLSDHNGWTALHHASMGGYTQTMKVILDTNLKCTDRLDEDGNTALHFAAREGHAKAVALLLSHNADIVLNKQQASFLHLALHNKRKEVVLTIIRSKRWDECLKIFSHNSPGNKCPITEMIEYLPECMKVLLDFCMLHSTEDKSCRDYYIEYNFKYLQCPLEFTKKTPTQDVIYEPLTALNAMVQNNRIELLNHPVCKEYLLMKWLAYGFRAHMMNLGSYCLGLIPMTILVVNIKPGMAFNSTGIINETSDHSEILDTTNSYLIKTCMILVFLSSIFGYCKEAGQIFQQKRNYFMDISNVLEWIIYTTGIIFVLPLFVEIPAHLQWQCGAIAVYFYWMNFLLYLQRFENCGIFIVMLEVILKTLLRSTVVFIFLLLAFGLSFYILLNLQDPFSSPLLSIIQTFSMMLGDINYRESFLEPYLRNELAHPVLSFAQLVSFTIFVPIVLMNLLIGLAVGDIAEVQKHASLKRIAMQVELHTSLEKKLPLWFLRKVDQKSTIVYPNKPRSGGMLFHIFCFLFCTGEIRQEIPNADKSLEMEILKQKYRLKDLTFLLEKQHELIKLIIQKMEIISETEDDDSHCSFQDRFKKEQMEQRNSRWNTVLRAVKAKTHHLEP

| pIC50 | Compound |
| --- | --- |
| 5.52 | C#CC(C)(C)NC(=O)c1cc(F)cnc1NCC(F)(F)F [Example 33, 5-Fluoro-N-(2-methylbut-3-yn-2-yl)-2-(2,2,2-trifluoroethylamino)-nicotinamide] |
| 6.30 | C#CC(C)(C)NC(=O)c1cc(C(F)(F)F)cnc1NCC(F)(F)F [Example 35, N-(2-Methylbut-3-yn-2-yl)-2-(2,2,2-trifluoroethylamino)-5-(trifluoromethyl)nicotinamide] |
| 5.38 | C#CC(C)(C)NC(=O)c1cc(C#N)ccc1NC1CCC1 [Example 36, 5-Cyano-2-(cyclobutylamino)-N-(2-methylbut-3-yn-2-yl)benzamide] |
| 5.49 | C#CC(C)(C)NC(=O)c1ccc(C#N)cc1NC1CCC1 [Example 37, 4-Cyano-2-(cydclobutylamino)-N-(2-methylbut-3-yn-2-yl)benzamide] |
| 5.60 | C#CC(C)(C)NC(=O)c1cc(F)c(F)cc1NCC(F)(F)F [Example 38, 4,5-Difluoro-N-(2-methylbut-3-yn-2-yl)-2-(2,2,2-trifluoroethylamino)-benzamide] |
| 6.22 | C#CC(C)(C)NC(=O)c1cc(C(F)(F)F)ccc1NCC(F)(F)F [Example 39, N-(2-Methylbut-3-yn-2-yl)-2-(2,2,2-trifluoroethylamino)-5-(trifluoromethyl) benzamide] |
| 5.54 | C#CC(C)(C)NC(=O)c1cc(C)ccc1NCC(F)(F)F [Example 40, 5-Methyl-N-(2-methylbut-3-yn-2-yl)-2-(2,2,2-trifluoroethylamino)-benzamide] |
| 6.30 | C#CC(C)(C)NC(=O)c1cc(Cl)cnc1NCCC(F)(F)F [Example 41, 5-Chloro-N-(2-methylbut-3yn-2-yl)-2-(3,3,3-trifluoropropylamino)-nicotinamide] |
| 6.30 | C#CC(C)(C)NC(=O)c1cc(F)c(F)cc1NCCCC [Example 42, 2-(Butylamino)-4,5-difluoro-N-(2-methylbut-3-yn-2-yl)benzamide] |
| 5.89 | C#CC(CC)(CC)NC(=O)c1cc(Cl)ccc1NCCOC [Example 44, 5-Chloro-N-(3-ethylpent-1-yn-3yl)-2-(2-methoxyethylamino)-benzamide] |
| 5.70 | C#CC(CC)(CC)NC(=O)c1cc(F)c(F)cc1NCCOC [Example 45, N-(3-Ethylpent-1-yn-3-yl)-4,5-difluoro-2-(2-methoxyethylamino)-benzamide] |
| 6.30 | C#CC(CC)(CC)NC(=O)c1cc(C(F)(F)F)ccc1NCCOC [Example 46, N-(3-Ethylpent-1-yn-3-yl)-2-(2-methoxyethylamino)-5-(trifluoro-methyl)benzamide] |
| 6.30 | C#CC(CC)(CC)NC(=O)c1cc(I)ccc1NCCOC [Example 47, N-(3-Ethylpent-1-yn-3-yl)-5-iodo-2-(2-methoxyethylamino)benzamide] |
| 5.24 | C#CC(C)(C)NC(=O)c1cc(C(F)(F)F)ccc1NCCOC [Example 48, 2-(2-Methoxyethylamino)-N-(2-methylbut-3-yn-2-yl)-5-(trifluoromethyl)benzamide] |
| 5.96 | C#CC(C)(C)NC(=O)c1cc(F)ccc1NCCCC [Example 49, 2-(Butylamino)-5-fluoro-N-(2-methylbut-3-yn-2-yl)benzamide] |
| 5.24 | C#CC(C)(C)NC(=O)c1cc(I)ccc1NCCOC [Example 50, 5-Iodo-2-(2-methoxyethylamino)-N-(2-methylbut-3-yn-2-yl)benzamide] |
| 5.66 | C#CC(C)(C)NC(=O)c1cc(F)cnc1NCC(C)C [Example 51, 5-Fluoro-2-(isobutylamino)-N-(2-methylbut-3-yn-2-yl)nicotinamide] |
| 5.92 | C#CC(C)(C)NC(=O)c1cc(F)cnc1NCCC(C)C [Example 52, 5-Fluoro-2-(isopentylamino)-N-(2-methylbut-3-yn-2-yl)nicotinamide] |
| 5.72 | C#CC(C)(C)NC(=O)c1cc(F)ccc1NCCOC(F)(F)F [Example 53, 5-Fluoro-N-(2-methylbut-3-yn-2-yl)-2-(2-(trifluoromethoxy)-ethylamino)benzamide] |
| 5.92 | C#CC(C)(C)NC(=O)c1cc(F)ccc1NCCCC(F)(F)F [Example 54, 5-Fluoro-N-(2-methylbut-3-yn-2-yl)-2-(4,4,4-trifluorobutylamino)-benzamide] |
| 5.77 | C#CC(C)(C)NC(=O)c1cc(F)cc(F)c1NCCC(F)(F)F [Example 55, 3,5-Difluoro-N-(2-methylbut-3-yn-2-yl)-2-(3,3,3-trifluoropropylamino)-benzamide] |
| 5.80 | C#CC(C)(C)NC(=O)c1cc(C(F)(F)F)cnc1NCC(F)F [Example 56, 2-(2,2-Difluoroethylamino)-N-(2-methylbut-3-yn-2-yl)-5-(trifluoromethyl)nicotinamide] |
| 5.33 | C#CC(C)(C)NC(=O)c1cc(F)cnc1NCC(C)(F)F [Example 57, 2-(2,2-Difluoropropylamino)-5-fluoro-N-(2-methylbut-3-yn-2-yl)nicotinamide] |
| 5.96 | C#CC(C)(C)NC(=O)c1cc(C(F)(F)F)cnc1NCCC(F)F [Example 58, 2-(3,3-Difluoropropylamino)-N-(2-methylbut-3-yn-2-yl)-5-(trifluoromethyl)nicotinamide] |

| pIC50 | Compound |
| --- | --- |
| 5.64 | C#CC(C)(C)NC(=O)c1cc(Cl)cnc1NCC(C)(F)F [Example 59, 5-Chloro-2-(2,2-difluoropropylamino)-N-(2-methylbut-3-yn-2-yl)nicotinamide] |
| 5.74 | C#CC(C)(C)NC(=O)c1cc(Cl)cnc1NCCC(F)F [Example 60, 5-Chloro-2-(3,3-difluoropropylamino)-N-(2-methylbut-3-yn-2-yl)nicotinamide] |
| 6.10 | C#CC(C)(C)NC(=O)c1cc(F)c(F)cc1NCC(C)(C)C [Example 61, 4,5-Difluoro-N-(2-methylbut-3-yn-2-yl)-2-(neopentylamino) benzamide] |
| 6.40 | C#CC(C)(C)NC(=O)c1cc(F)c(F)cc1NCC(C)C [Example 62, 4,5-Difluoro-2-(isobutylamino)-N-(2-methylbut-3-yn-2-yl)benzamide] |
| 5.51 | C#CC(C)(C)NC(=O)c1cc(F)c(F)cc1NCCC [Example 63, 4,5-Difluoro-N-(2-methylbut-3-yn-2-yl)-2-(propylamino)benzamide] |
| 5.82 | C#CC(C)(C)NC(=O)c1ccccc1NCCCC [Example 64, 2-(Butylamino)-N-(2-methylbut-3-yn-2-yl)benzamide] |
| 5.31 | C#CC(C)(C)NC(=O)c1cc(F)c(F)cc1NCC [Example 65, 2-(Ethylamino)-4,5-difluoro-N-(2-methylbut-3-yn-2-yl)benzamide] |
| 6.05 | C#CC(C)(C)NC(=O)c1cc(F)c(F)cc1NCCC(F)(F)F [Example 66, 4,5-Difluoro-N-(2-methylbut-3-yn-2-yl)-2-(3,3,3-trifluoropropylamino)-benzamide] |
| 5.26 | C#CC(C)(C)NC(=O)c1cc(F)c(F)cc1NC(C)C [Example 67, 4,5-Difluoro-2-(isopropylamino)-N-(2-methylbut-3-yn-2-yl)benzamide] |
| 5.96 | C#CC(C)(CC(C)C)NC(=O)c1cc(F)c(F)cc1NCC(C)C (stereo not drawn) [Example 68, N-(3,5-Dimethylhex-1-yn-3-yl)-4,5-difluoro-2-(isobutylamino)-benzamide] |
| 6.52 | C#CC(C)(NC(=O)c1cc(F)c(F)cc1NCC(C)C)C(C)C (stereo not drawn) [Example 69, N-(3,4-Dimethylpent-1-yn-3-yl)-4,5-difluoro-2-(isobutylamino)-benzamide] |
| 6.15 | C#CC(C)(CCC)NC(=O)c1cc(F)c(F)cc1NCC(C)C (stereo not drawn) [Example 70, 4,5-Difluoro-2-(isobutylamino)-N-(3-methylhex-1-yn-3-yl)benzamide] |
| 6.15 | C#CC(C)(C)NC(=O)c1ccc(F)cc1NCCC(F)(F)F [Example 71, 4-Fluoro-N-(2-methylbut-3-yn-2-yl)-2-(3,3,3-trifluoropropylamino) benzamide] |
| 6.30 | C#CC(C)(C)NC(=O)c1ccc(C(F)(F)F)cc1NCCC(F)(F)F [Example 72, N-(2-methylbut-3-yn-2-yl)-4-(trifluoromethyl)-2-(3,3,3-trifluoropropyl-amino)benzamide] |
| 5.66 | C#CC(C)(C)NC(=O)c1ccc(OC)cc1NCCC(F)(F)F [Example 73, 4-Methoxy-N-(2-methylbut-3-yn-2-yl)-2-(3,3,3-trifluoropropylamino)-benzamide] |
| 5.15 | C#CC(C)(C)NC(=O)c1ccc(OC)cc1NCCC [Example 74, 4-Methoxy-N-(2-methylbut-3-yn-2-yl)-2-(propylamino)benzamide] |
| 6.15 | C#CC(C)(C)NC(=O)c1cc(OC(F)(F)F)ccc1NCCC(F)(F)F [Example 75, N-(2-Methylbut-3-yn-2-yl)-5-(trifluoromethoxy)-2-(3,3,3-trifluoropropylamino)benzamide] |
| 5.33 | C#CC(C)(C)NC(=O)c1cc(OC)ccc1NCCC(F)(F)F [Example 76, 5-Methoxy-N-(2-methylbut-3-yn-2-yl)-2-(3,3,3-trifluoropropyl-amino)benzamide] |
| 6.05 | C#CC(C)(C)NC(=O)c1cc(C)ccc1NCCC(F)(F)F [Example 77, 5-Methyl-N-(2-methylbut-3-yn-2-yl)-2-(3,3,3-trifluoropropylamino)-benzamide] |
| 6.10 | C#CC(C)(C)NC(=O)c1cc(SC)ccc1NCCC(F)(F)F [Example 78, N-(2-Methylbut-3-yn-2-yl)-5-(methylthio)-2-(3,3,3-trifluoropropyl-amino)benzamide] |
| 5.74 | C#CC(C)(C)NC(=O)c1ccccc1NCCC(F)(F)F [Example 79, N-(2-Methylbut-3-yn-2-yl)-2-(3,3,3-trifluoropropylamino)benzamide] |
| 5.89 | C#CC(C)(C)NC(=O)c1ccccc1NCC(C)C [Example 80, 2-(Isobutylamino)-N-(2-methylbut-3-yn-2-yl)benzamide] |
| 5.89 | C#CC(C)(C)NC(=O)c1ccccc1NCC(C)(C)C [Example 81, N-(2-Methylbut-3-yn-2-yl)-2-(neopentylamino)benzamide] |

| Compound | pIC50 |
| --- | --- |
| C#CC(CC)(CC)NC(=O)c1cc(Br)ccc1NCCOC [Example 43, 5-Bromo-(3-ethylpent-1-yn-3yl)-2-(2-methoxyethylamino)-benzamide] | 6.00 |
